Measured values taken from US20190046662A1, “Compositions and Methods for Treating Neuropathic Pain” (Rutgers, The State University of New Jersey, priority 2016, published 2019).

Legend:
Type in all cases: in vivo, rat
[1] = biological target: T1, hSyn-hM4D (Homo sapiens, UniProt P08173, A203G/Y113C); test: Face grooming after s.c. formalin into right upper lip, synapsin-DREADD (hSyn-hM4D); details: n=7 per group, vs vehicle
T1 construct: expressed in transfected cells; host or cells: rat trigeminal ganglion neurons in vivo, viral vector with synapsin promoter
T1 sequence (P08173 1-479 Y113C/A203G): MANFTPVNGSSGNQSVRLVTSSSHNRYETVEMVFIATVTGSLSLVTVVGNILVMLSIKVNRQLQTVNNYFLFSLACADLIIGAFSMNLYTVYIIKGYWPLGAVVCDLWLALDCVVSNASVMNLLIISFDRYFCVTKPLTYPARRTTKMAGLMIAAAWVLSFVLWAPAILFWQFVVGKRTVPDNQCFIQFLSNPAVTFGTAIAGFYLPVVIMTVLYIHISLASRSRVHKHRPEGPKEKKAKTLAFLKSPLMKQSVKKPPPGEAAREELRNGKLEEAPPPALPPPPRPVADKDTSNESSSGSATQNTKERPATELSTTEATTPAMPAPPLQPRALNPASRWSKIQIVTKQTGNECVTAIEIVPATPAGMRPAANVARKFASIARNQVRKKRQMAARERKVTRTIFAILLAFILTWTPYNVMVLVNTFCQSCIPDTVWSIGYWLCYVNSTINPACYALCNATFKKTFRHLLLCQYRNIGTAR
Protocol: The effects of synapsin-DREADD activation with CNO on face grooming activity observed after subcutaneous (s.c.) injection of formalin into the right upper lip were also studied (FIG. 5). The mean number of seconds that rats (males, n=7 per group; females, n=7 per group) spent grooming (±SEM) is plotted for the 45 minutes post-formalin injection observation period. All animals had synapsin-DREADD (hSyn-hM4D) injected into the right trigeminal ganglion. CNO or vehicle was delivered intraperitoneally 30 minutes prior to the s.c. injection of 1.5% formalin (50 μl) into the right upper lip (ipsilateral side), just lateral to the nose.

[2] = biological target: T1, hSyn-hM4D; test: Pain-like behavior after infraorbital nerve chronic constriction injury (IoN-CCI), synapsin-DREADD (hSyn-hM4D); details: IoN-CCI males
Source text: For the infraorbital nerve chronic constriction injury (ION-CCI), ˜0.5 cm of the infraorbital nerve will be freed and two chromic gut ligatures will be loosely tied around it (2 mm apart) prior to closure of the incision (all performed under ketamine/xylazine anesthesia). As a control, other rats will undergo sham surgery where the infraorbital nerve is exposed but left untouched. This model results in persistent pain beginning at about 2 weeks postoperatively and lasting at least 3 weeks (Benoliel et al. (2001) Neurosci. Lett., 297:151-4; Benoliel et al. (2002) Pain 97:203-12), allowing for the assessment of the effect of vehicle vs CNO/DREADD-mediated inhibition of TG neurons on this behavior at multiple time points. Fos expression and cAMP levels may also be measured in the TG to correlate these molecular endpoints to behavioral effects of DREADD activation. The rats will also undergo repeated stimulation with a 2-g von Frey hair applied to the hairy skin of the vibrissae on the operated side to induce Fos (Vos et al. (1995) J. Comp. Neurol., 357:362-75). Activation of hM4Di receptors will reduce Fos in the TG following von Frey stimulation.
The effects of synapsin-DREADD activation with CNO on pain-like behavior following chronic constriction injury (CCI) of the infraorbital nerve (ION) were also studied (FIG. 6). The mean von Frey detection thresholds (±SEM) (left) and the mean response scores (±SEM) (right) to the pin-prick stimulation applied to the vibrissal pads were plotted. All animals (males, n=4 per group) were exposed to the infraorbital nerve chronic constriction injury (IoN-CCI) unilaterally. Following IoN-CCI, all animals had synapsin-DREADD (hSyn-hM4D) injected into the ipsilateral trigeminal ganglion. At post-operative day 26 (D26) CNO or vehicle was delivered intraperitoneally 30 minutes prior to behavioral testing.

[3] = biological target: T1, hSyn-hM4D; test: von Frey detection threshold, synapsin-DREADD (hSyn-hM4D) in right trigeminal ganglion, non-CCI animals; details: n=7 per group, CNO i.p. vs vehicle
Source text: The effects of synapsin-DREADD activation with CNO on von Frey detection threshold were studied (FIG. 3). The von Frey assay uses von Frey fibers, which are small pieces of nylon rod of varying diameters, to test a rodent's sensitivity to a mechanical stimulus. The von Frey assay is generally considered a mechanical nociceptive threshold test. All animals (males, n=7 per group; females, n=7 per group) had synapsin-DREADD (hSyn-hM4D; synapsin promoter driven DREADD) injected into the right trigeminal ganglion. Average von Frey detection thresholds (±SEM) were plotted following intraperitoneal (i.p.) administration of CNO or vehicle.

[4] = biological target: T2, hTac1-hM4D (Homo sapiens, UniProt P08173, A203G/Y113C); test: von Frey detection threshold, Tac1-DREADD (hTac1-hM4D) in right trigeminal ganglion, non-CCI animals; details: females, n=7 per group, CNO i.p. vs vehicle
T2 construct: expressed in transfected cells; host or cells: rat trigeminal ganglion neurons in vivo, viral vector with Tac1 promoter
T2 sequence (P08173 1-479 Y113C/A203G): T1 sequence (P08173 1-479 Y113C/A203G)
Source text: The effects of Tac1-DREADD activation with CNO on von Frey detection threshold were also studied (FIG. 7). All animals (female, n=7 per group) had Tachykinin 1-DREADD (hTac1-hM4D; Tac1 promoter driven DREADD) injected into the right trigeminal ganglion. Average von Frey detection thresholds (±SEM) are plotted following intraperitoneal administration of CNO or vehicle.

[5] = biological target: T2, hTac1-hM4D; test: Pin-prick response score, Tac1-DREADD (hTac1-hM4D) in trigeminal ganglion, non-CCI animals; details: females, n=7 per group, CNO i.p. vs vehicle
Source text: The effects of Tac1-DREADD activation with CNO on pin-prick response score were also studied (FIG. 8). All animals (female, n=7 per group) had Tachykinin 1-DREADD (hTac1-hM4D) injected into the trigeminal ganglion unilaterally. Average pin-prick response scores (±SEM) were plotted following intraperitoneal (i.p.) administration of CNO or vehicle.

With `C[N+]1([O-])CCN(C2=Nc3cc(Cl)ccc3Nc3ccccc32)CC1` [CNO, clozapine N-oxide] the “total face grooming time, tonic phase (12-45 minutes post formalin injection)” value ([1]; females, CNO i.p. 30 min prior to formalin, F=5.5, P=0.02) was “significantly reduced”, the “total face grooming time, tonic phase (12-45 minutes post formalin injection)” value ([1]; males, CNO i.p. 30 min prior to 1.5% formalin (50 μl) s.c., F=27.1, P<0.0001) was “significantly reduced” and the “total face grooming time, acute phase (0-6 minutes post formalin injection)” value ([1]; males, CNO i.p. 30 min prior to formalin, F=4.5, P=0.04) was “significant reduction”. For the same compound, the “pin-prick response score, contralateral side” value ([2]; CNO i.p. at D26) was “No significant effects”, the “von Frey detection threshold, contralateral side” value ([2]; CNO i.p. at D26) was “No significant effects” and the “von Frey detection threshold, ipsilateral side, compared to post-operative days 21 and 27” value ([2]; CNO i.p. at D26, D21 F=20.4, P=0.004, D27 F=7.8, P=0.03) was “significantly increased”. The “pin-prick response score, ipsilateral side, compared to post-operative days 21 and 27” value ([2]; CNO i.p. at D26, D21 F=32, P=0.001, D27 F=21, P=0.004) was “significantly decreased”, the “von Frey detection threshold, ipsilateral side, compared to vehicle treated animals” value ([2]; n=4 per group, CNO i.p. at D26, 30 min prior to testing, F=7.8, P=0.03) was “significantly increased” and the “pin-prick response score, ipsilateral vibrissal pad, compared to vehicle treated animals” value ([2]; n=4 per group, CNO i.p. at D26, F=7.7, P=0.03) was “significantly decreased”. The “von Frey detection threshold, ipsilateral vibrissal pad” value ([3]; females, D28, 30 min after CNO, F=1.2, P=0.3) was “no significant effect”, the “von Frey detection threshold, contralateral vibrissal pad” value ([3]; females, F=2.8, P=0.1) was “no significant effect” and the “von Frey detection threshold, contralateral vibrissal pad” value ([3]; males, F=1.2, P=0.3) was “no significant effect”. The “von Frey detection threshold, ipsilateral vibrissal pad” value ([3]; males, F=3.3, P=0.1) was “no significant effect”, the “von Frey detection threshold, contralateral vibrissal pad” value ([4]; F=0.4, P=0.6) was “no significant effect” and the “von Frey detection threshold, ipsilateral vibrissal pad” value ([4]; F=1.4, P=0.3) was “no significant effect”. The “pin-prick response score, contralateral vibrissal pad” value ([5]; F=0.01, P=0.9) was “no significant effect” and the “pin-prick response score, ipsilateral vibrissal pad” value ([5]; F=0.1, P=0.8) was “no significant effect”.
